The numbers were not newly measured in article PMC7395068, “The evolution of strategies to minimise the risk of human drug-induced liver injury (DILI) in drug discovery and development” (Archives of Toxicology, 2020), which cites them from elsewhere.

Read-outs that look alike come from different tables or passages of the source.

One data set concerns human hepatocytes. Particulars: In vitro Assay; ref Xu 2008; cited from earlier work.
In data set [1] the test system is isolated mouse liver mitochondria. Particulars: In vitro Assay; ref Porceddu 2012; cited from earlier work.
In another data set the test system is PHH spheroids. Particulars: In vitro Assay; ref Vorrink 2018; cited from earlier work.
For data set [2] the following is noted: cited from earlier work.
The conditions of data set [3]: cited from earlier work. This is another data set of the same source.
The conditions of data set [4]: cited from earlier work. The source holds these as a separate data set.
Data set [5] relates to THLE-Null and THLE-3A4 cells. Particulars: In vitro Assay; ref Gustafsson 2014; cited from earlier work.
A further data set has as its system rBsep. Particulars: In vitro Assay; ref Dawson 2012; cited from earlier work.
Data set [6] relates to primary human hepatocytes, NIH3T3 fibroblasts, BSEP, CYP3A4. Particulars: In vitro Assay; ref Schadt 2015; cited from earlier work.
In data set [7] the test system is HepG2 cells. Particulars: In vitro Assay; ref O'Brien 2006; cited from earlier work.
The test system of data set [8] is THLE or HepG2 cells, isolated mitochondria, BSEP. Particulars: cited from earlier work.
For data set [9], the system named is HepG2 cells. Particulars: In vitro Assay; ref Persson 2013; cited from earlier work.
Data set [10] has as its system HepG2 cells, primary human hepatocytes. Particulars: cited from earlier work.

As to `NC12CC3CC(CC(C3)C1)C2` [amantadine], the “Structural based (HCI)” value in the data set on human hepatocytes was “-VE”. In data set [1], the “in vitro data EC2<=1x Cmax” value was “-VE”. In addition, in the data set with PHH spheroids, the “hLiMTs ATP <20 x Cmax” value is reported as “-VE”. Moreover, in data set [2] (in vivo), the “DILI +VE (5-8), DILI -VE (-4)” value is listed as “-VE” and the DILI severity category entry is listed as “Ambiguous DILI-concern”. For the same compound, the “DILI Score (FDA) (1-8)” value in [3] (in vivo) is 3. In [4] (in vivo), the “In vivo DILI” value is recorded as “-VE”.

Turning to `Nc1nc2c(ncn2COCCO)c(=O)[nH]1` [acyclovir], in data set [5], the THLE-Null result was “-VE”. Also, in data set [2] (in vivo), the “DILI +VE (5-8), DILI -VE (-4)” value is listed as “+VE” and the DILI severity category result is listed as “vLess-DILI-Concern”. Besides, the “DILI Score (FDA) (1-8)” value in [3] (in vivo) was 5. In the data set with rBsep, the “Inhibition of rBsep cutoff<1& cmax u>.2” value is reported as “-VE” and the “Inhibition of rBsep cutoff<3” value is reported as “-VE”. Further, in data set [6], the “Cellular toxicity (3T3 cells)” value is given as “-VE”, the “Combined Assay” value is “-VE”, the “GSH adduct HML” value is on record as “-VE” and the Hepatocyte cellular toxicity result was “-VE”. In addition, in [6], the “MitoTox 3T3” value is reported as “-VE”, the “TDI CYP3A4” value was “-VE” and the hBSEP inhibition entry is listed as “-VE”.

As to `O=C(c1ccccc1)c1ccc2n1CCC2C(=O)O` (centres unmarked) [ketorolac], the “Structural based (HCI)” value with human hepatocytes, with HepG2 cells [7] and in the data set with HepG2 cells [9] was “-VE” throughout. For the same compound, in the data set with PHH spheroids, the “hLiMTs ATP <20 x Cmax” value is “+VE (IC20 < 20 × Cmax.tot cut-off)”. For the same compound, in data set [2] (ref Chen 2016), the “DILI +VE (5-8), DILI -VE (-4)” value is listed as “+VE”. In data set [2] (ref Chen 2016), the DILI severity category entry is recorded as “vLess-DILI-Concern”. Also, the “DILI Score (FDA) (1-8)” value in [3] (ref Chen 2011) is on record as 3. Moreover, the “Partition Hybrid HRM Score” value in data set [8] (In vitro Assay, ref Aleo 2019) is recorded as “-VE”. The “Ro2 Hybrid HRM Score” value in [8] (In vitro Assay, ref Aleo 2019) is “-VE”. Besides, the Cluser analysis entry in the data set with HepG2 cells [9] was “-VE”. For the same compound, the “In vivo DILI” value in data set [4] (ref Aleo 2019), in data set [4] (ref O'Brien 2006), in data set [4] (ref Persson 2013), in data set [4] (ref Vorrink 2018) and in data set [4] (ref Xu 2008) was “+VE” in each case.

As to `O=C1CC[C@@]2(O)[C@H]3Cc4ccc(O)c5c4[C@@]2(CCN3CC2CC2)[C@H]1O5` [naltrexone], the “Structural based (HCI)” value in the data set with human hepatocytes is given as “-VE”. Besides, in data set [5], the THLE-Null entry is on record as “-VE” and the THLE-Null/3A4 result is given as “-VE”. In data set [2] (in vivo), the “DILI +VE (5-8), DILI -VE (-4)” value is reported as “-VE” and the DILI severity category entry is reported as “Ambiguous DILI-concern”. Besides, the “DILI Score (FDA) (1-8)” value in [3] (in vivo) is 3. Besides, the “In vivo DILI” value in data set [4] (in vivo) is listed as “+VE”.

On to `CC(C)Cc1ccc(C(C)C(=O)O)cc1` (centres unmarked) [ibuprofen], for which, in data set [1], the “in vitro data EC2<=1x Cmax” value is “+VE” and the “in vitro data EC20<=2uM” value is recorded as “+VE”. Moreover, the THLE-Null result in data set [5] was “-VE”. In addition, in data set [2] (in vivo), the “DILI +VE (5-8), DILI -VE (-4)” value is reported as “+VE” and the DILI severity category result was “vLess-DILI-Concern”. Moreover, the “Structural based (HCI)” value with HepG2 cells [7] is on record as “+VE”. The “DILI Score (FDA) (1-8)” value in [3] (in vivo) is recorded as 3. For the same compound, the “Structural based (HCI)” value in the data set on HepG2 cells [9] is on record as “+VE”. In addition, in the data set on rBsep, the “Inhibition of rBsep cutoff<1& cmax u>.2” value is “-VE” and the “Inhibition of rBsep cutoff<3” value is given as “+VE”. Moreover, in data set [6], the “Cellular toxicity (3T3 cells)” value was “-VE”, the “Combined Assay” value is reported as “-VE”, the “GSH adduct HML” value is “-VE” and the Hepatocyte cellular toxicity entry is given as “-VE”. Further, in data set [6], the “MitoTox 3T3” value was “-VE”, the “TDI CYP3A4” value is “-VE” and the hBSEP inhibition result was “-VE”.

As for `Sc1ncnc2nc[nH]c12` [mercaptopurine], the results for the “Structural based (HCI)” value with human hepatocytes, in the data set with HepG2 cells [7] and in the data set with HepG2 cells [9] were “-VE”, “+VE” and “+VE”, respectively. Besides, the “in vitro data EC2<=1x Cmax” value in data set [1] is recorded as “-VE”. Moreover, the “in vitro data EC20<=2uM” value in data set [1] was “+VE”. In the data set with PHH spheroids, the “hLiMTs ATP <20 x Cmax” value is given as “+VE (IC20 < 20 × Cmax.tot cut-off)”. Also, the “DILI +VE (5-8), DILI -VE (-4)” value in data set [2] (ref Chen 2016) is “+VE”. In data set [2] (ref Chen 2016), the DILI severity category entry is given as “vMost-DILI-Concern”. In [3] (ref Chen 2011), the “DILI Score (FDA) (1-8)” value was 8. For the same compound, in [8] (In vitro Assay, ref Aleo 2019), the “Partition Hybrid HRM Score” value is given as “+VE”. Also, in data set [8] (In vitro Assay, ref Aleo 2019), the “Ro2 Hybrid HRM Score” value is reported as “+VE”. Moreover, in the data set with HepG2 cells [9], the Cluser analysis entry is given as “+VE”. The “In vivo DILI” value in data set [4] ([…]), in [4] (ref Aleo 2019), in data set [4] (ref O'Brien 2006), in data set [4] (ref Persson 2013), in data set [4] (ref Porceddu 2012) and in data set [4] (ref Vorrink 2018) was “+VE” in each case. Moreover, in data set [4] (ref Xu 2008), the “In vivo DILI” value is recorded as “+VE”.

`CNC(=C[N+](=O)[O-])NCCSCc1ccc(CN(C)C)o1` [ranitidine]: the “in vitro data EC2<=1x Cmax” value in [1] is “+VE”. The “in vitro data EC20<=2uM” value in data set [1] is “-VE”. The THLE-Null result in [5] is given as “-VE”. In data set [2] (ref Chen 2016), the “DILI +VE (5-8), DILI -VE (-4)” value is “+VE”. Moreover, the DILI severity category result in [2] (ref Chen 2016) is “vLess-DILI-Concern”. Besides, in [3] (ref Chen 2011), the “DILI Score (FDA) (1-8)” value is 5. The “Partition Hybrid HRM Score” value in [8] (In vitro Assay, ref Aleo 2019) is reported as “-VE”. Moreover, the “Ro2 Hybrid HRM Score” value in [8] (In vitro Assay, ref Aleo 2019) is “-VE”. For the same compound, the “Inhibition of rBsep cutoff<1& cmax u>.2” value with rBsep was “-VE”. Also, in the data set with rBsep, the “Inhibition of rBsep cutoff<3” value is listed as “-VE”. Further, the “In vivo DILI” value in data set [4] ([…]), in data set [4] (ref Aleo 2019), in data set [4] (ref Dawson 2012), in data set [4] (ref Garside 2014), in data set [4] (ref Gustafsson 2014) and in data set [4] (ref Porceddu 2012) was “+VE” throughout. The “In vivo DILI” value in [4] (ref Xu 2008) is on record as “-VE”.

With `CC1(C)S[C@@H]2[C@H](NC(=O)[C@H](N)c3ccc(O)cc3)C(=O)N2[C@H]1C(=O)O` [amoxicillin], the “in vitro data EC2<=1x Cmax” value in [1] is “+VE”. Also, in data set [1], the “in vitro data EC20<=2uM” value was “+VE”. Moreover, in data set [5], the THLE-Null entry is on record as “-VE”. Also, the “DILI +VE (5-8), DILI -VE (-4)” value in data set [2] (ref Chen 2016) was “+VE”. Moreover, in data set [2] (ref Chen 2016), the DILI severity category result is given as “vLess-DILI-Concern”. Further, the “DILI Score (FDA) (1-8)” value in data set [3] (ref Chen 2011) is reported as 3. Further, the “Partition Hybrid HRM Score” value in data set [8] (In vitro Assay, ref Aleo 2019) was “-VE”. Also, the “Ro2 Hybrid HRM Score” value in data set [8] (In vitro Assay, ref Aleo 2019) is “-VE”. For the same compound, the “Inhibition of rBsep cutoff<1& cmax u>.2” value with rBsep is reported as “-VE”. Besides, the “Inhibition of rBsep cutoff<3” value with rBsep is given as “-VE”. The “In vivo DILI” value is reported as “-VE” in data set [4] ([…]); “+VE” in [4] (ref Aleo 2019); “-VE” in data set [4] (ref Dawson 2012); “+VE” in [4] (ref Garside 2014); “+VE” in data set [4] (ref Gustafsson 2014); “+VE” in [4] (ref Porceddu 2012). In [4] (ref Schadt 2015), the “In vivo DILI” value is “-VE”.

For the compound `COc1ccc(C(CN(C)C)C2(O)CCCCC2)cc1` (centres unmarked) [venlafaxine], in [2] (in vivo), the “DILI +VE (5-8), DILI -VE (-4)” value is on record as “+VE” and the DILI severity category result was “vLess-DILI-Concern”. Further, the “DILI Score (FDA) (1-8)” value in data set [3] (in vivo) is 7. Besides, in data set [8], the “Partition Hybrid HRM Score” value is on record as “+VE” and the “Ro2 Hybrid HRM Score” value is recorded as “+VE”. The “Cluster 1-6 +VE Assay” value in data set [10] is on record as “-VE”.

In the case of `OC(Cn1cncn1)(Cn1cncn1)c1ccc(F)cc1F` [fluconazole], the “Structural based (HCI)” value in the data set with human hepatocytes is on record as “-VE”. In addition, the “in vitro data EC2<=1x Cmax” value in [1] was “+VE”. Besides, in data set [1], the “in vitro data EC20<=2uM” value is reported as “-VE”. Besides, in the data set with PHH spheroids, the “hLiMTs ATP <20 x Cmax” value is “-VE”. Further, the “DILI +VE (5-8), DILI -VE (-4)” value in data set [2] (ref Chen 2016) is “+VE”. Moreover, the DILI severity category result in [2] (ref Chen 2016) is “vMost-DILI-Concern”. For the same compound, in data set [3] (ref Chen 2011), the “DILI Score (FDA) (1-8)” value is 8. Also, the “Ro2 Hybrid HRM Score” value in [8] (In vitro Assay, ref Aleo 2019) is listed as “-VE”. The “In vivo DILI” value in [4] ([…]), in data set [4] (ref Aleo 2019), in [4] (ref Porceddu 2012), in data set [4] (ref Vorrink 2018) and in data set [4] (ref Xu 2008) was “+VE” throughout.
